We go through 33 molecules from patent publication US7300946B2, “N-(substituted arylmethyl)-4-(disubstituted methyl) piperidines and pyridines” (Bayer CropScience AG, priority 2002, dated 2007).

Each structure is given as a SMILES string.

The assay concerns tobacco budworm (Heliothis virescens [Fabricius]). The assay can be described thus: surface-treated diet test against the tobacco budworm. In kind it is in vivo. The settings on record: tobacco budworm second instar larvae, surface-treated diet, 0.25 millimoles of candidate insecticide on the surface of the diet, five-day exposure; for Percent Mortality: compared to total number of insects infested; for Percent Growth Inhibition: inhibition of insect weight relative to untreated controls. How it is done:
Candidate insecticides were evaluated for activity against the tobacco budworm (Heliothis virescens [Fabricius]) in a surface-treated diet test.
In this test one mL of molten (65–70° C.) wheat germ-based artificial diet was pipetted into each well of a four by six (24 well) multi-well plate (ID# 430345-15.5 mm dia.×17.6 mm deep; Corning Costar Corp., One Alewife Center, Cambridge, Mass. 02140). The diet was allowed to cool to ambient temperature before treatment with candidate insecticide.
For a determination of insecticidal activity, solutions of the candidate insecticides were prepared for testing using a Packard 204DT Multiprobe® Robotic System (Packard Instrument Company, 800 Research Parkway, Meriden, Conn. 06450), in which the robot first diluted a standard 50 millimolar DMSO solution of candidate insecticide with a 1:1 water/acetone solution (V/V) in a ratio of 1:7 stock solution to water/acetone. The robot subsequently pipetted 40 microliters of the so-prepared solution onto the surface of the diet in each of three wells in the 24 multi-well plate. The process was repeated with solutions of seven other candidate insecticides. Once treated, the contents of the multi-well plate were allowed to dry, leaving 0.25 millimoles of candidate insecticide on the surface of the diet, or a concentration of 0.25 millimolar. Appropriate untreated controls containing only DMSO on the diet surface were also included in this test. […]
In each well of the test plate was placed one second instar tobacco budworm larvea, each weighing approximately five milligrams. After the larvae were placed in each well, the plate was sealed with clear polyfilm adhesive tape. The tape over each well was perforated to ensure an adequate air supply. The plates were then held in a growth chamber at 25° C. and 60% relative humidity for five days (light 14 hours/day).
After the five-day exposure period insecticidal activity for each rate of application of candidate insecticide was assessed as percent inhibition of insect weight relative to the weight of insects from untreated controls, and percent mortality when compared to the total number of insects infested.
The test compounds of formula I are identified by numbers that correspond to those in Table 1.
These tests were conducted with 0.25 millimoles of candidate insecticide on the surface of the diet.

As for `FC(F)(F)c1ccc(C(=C2CCN(Cc3ccccc3)CC2)c2ccccc2)cc1` [Compound 30], the “Percent Mortality” value was 100% and the “Percent Growth Inhibition” value is recorded as 54%.
On the same counts, the results for `Fc1ccc(C(=C2CCN(Cc3ccccc3)CC2)c2ccc(C(F)(F)F)cc2)cc1` [Compound 31] are 17% and 99%.
On the same counts, the results for `COc1ccc(CN2CCC(=C(c3ccc(OC(F)(F)F)cc3)c3ccc(OC(F)(F)F)cc3)CC2)cc1` [Compound 42] are 100% and 100%.
Take `CCCOc1ccc(CN2CCC(=C(c3ccc(O)cc3)c3ccc(O)cc3)CC2)cc1` [Compound 44]: the “Percent Mortality” value is given as 67% and the “Percent Growth Inhibition” value worked out at 100%.
On to `CCCOc1ccc(CN2CCC(=C(c3cccc(C(F)(F)F)c3)c3cccc(C(F)(F)F)c3)CC2)cc1` [Compound 45], for which the “Percent Mortality” value was 0% and the “Percent Growth Inhibition” value is 24%.
In the case of `CCCOc1ccc(CN2CCC(=C(c3cccc(OC(F)(F)F)c3)c3cccc(OC(F)(F)F)c3)CC2)cc1` [Compound 47], the “Percent Mortality” value is 0% and the “Percent Growth Inhibition” value is 11%.
On the same counts, the results for `CCCOc1ccc(CN2CCC(=C(c3ccc(OC(F)(F)F)cc3)c3ccc(OC(F)(F)F)cc3)CC2)cc1` [Compound 48] are 100% and 100%.
The corresponding values for `CCOC(=O)c1ccc(CN2CCC(=C(c3ccc(C(F)(F)F)cc3)c3ccc(C(F)(F)F)cc3)CC2)cc1` [Compound 50] are 67% and 96%.
For `CC(C)OC(=O)c1ccc(CN2CCC(=C(c3ccc(C(F)(F)F)cc3)c3ccc(C(F)(F)F)cc3)CC2)cc1` [Compound 51], the “Percent Mortality” value is recorded as 0% and the “Percent Growth Inhibition” value was 26%.
Take `CC(=O)Nc1ccc(CN2CCC(=C(c3ccc(C(F)(F)F)cc3)c3ccc(C(F)(F)F)cc3)CC2)cc1` [Compound 52]: the “Percent Mortality” value was 33% and the “Percent Growth Inhibition” value is 100%.
Turning to `O=C(Nc1ccc(CN2CCC(=C(c3ccc(C(F)(F)F)cc3)c3ccc(C(F)(F)F)cc3)CC2)cc1)C(F)(F)F` [Compound 53], the “Percent Mortality” value was 0% and the “Percent Growth Inhibition” value is 100%.
Turning to `COC(=O)Nc1ccc(CN2CCC(=C(c3ccc(C(F)(F)F)cc3)c3ccc(C(F)(F)F)cc3)CC2)cc1` [Compound 54], the “Percent Mortality” value came to 100% and the “Percent Growth Inhibition” value was 100%.
For `CCOC(=O)Nc1ccc(CN2CCC(=C(c3ccc(C(F)(F)F)cc3)c3ccc(C(F)(F)F)cc3)CC2)cc1` [Compound 55, N-{4-[(4-{bis[4-(trifluoromethyl)phenyl]methylene}piperidyl)methyl]phenyl}ethoxycarboxamide], the “Percent Mortality” value stood at 100% and the “Percent Growth Inhibition” value worked out at 100%.
Consider `CCOC(=O)N(C)c1ccc(CN2CCC(=C(c3ccc(C(F)(F)F)cc3)c3ccc(C(F)(F)F)cc3)CC2)cc1` [Compound 56], for which the “Percent Mortality” value turned out to be 100% and the “Percent Growth Inhibition” value amounted to 100%.
With `CCCOC(=O)Nc1ccc(CN2CCC(=C(c3ccc(C(F)(F)F)cc3)c3ccc(C(F)(F)F)cc3)CC2)cc1` [Compound 57], the “Percent Mortality” value is 100% and the “Percent Growth Inhibition” value is 100%.
Turning to `CC(C)OC(=O)Nc1ccc(CN2CCC(=C(c3ccc(C(F)(F)F)cc3)c3ccc(C(F)(F)F)cc3)CC2)cc1` [Compound 58], the “Percent Mortality” value worked out at 100% and the “Percent Growth Inhibition” value is given as 100%.
As to `CC(C)COC(=O)Nc1ccc(CN2CCC(=C(c3ccc(C(F)(F)F)cc3)c3ccc(C(F)(F)F)cc3)CC2)cc1` [Compound 59], the “Percent Mortality” value was found to be 0% and the “Percent Growth Inhibition” value amounted to 59%.
Turning to `CCON=Cc1ccc(CN2CCC(=C(c3ccc(C(F)(F)F)cc3)c3ccc(C(F)(F)F)cc3)CC2)cc1` [Compound 60], the “Percent Mortality” value turned out to be 100% and the “Percent Growth Inhibition” value is 100%.
Take `FC(F)(F)c1ccc(C(=C2CCN(Cc3ccc(OCc4nccs4)cc3)CC2)c2ccc(C(F)(F)F)cc2)cc1` [Compound 61]: the “Percent Mortality” value turned out to be 100% and the “Percent Growth Inhibition” value was found to be 100%.
Regarding `Cn1nnc(-c2ccc(CN3CCC(=C(c4ccc(Cl)cc4)c4ccc(C(F)(F)F)cc4)CC3)cc2)n1` [Compound 74], the “Percent Mortality” value was determined as 100% and the “Percent Growth Inhibition” value was determined as 100%.
For `Cn1nnc(-c2ccc(CN3CCC(=C(c4ccc(C(F)(F)F)cc4)c4ccc(C(F)(F)F)cc4)CC3)cc2)n1` [Compound 75], the “Percent Mortality” value came out at 100% and the “Percent Growth Inhibition” value turned out to be 96%.
The corresponding values for `CCn1nnc(-c2ccc(CN3CCC(=C(c4ccccc4)c4ccc(Cl)cc4)CC3)cc2)n1` [Compound 76] are 0% and 91%.
The corresponding values for `CCn1nnc(-c2ccc(CN3CCC(=C(c4ccc(Cl)cc4)c4ccc(Cl)cc4)CC3)cc2)n1` [Compound 77] are 100% and 100%.
The corresponding values for `CCn1nnc(-c2ccc(CN3CCC(=C(c4ccc(F)cc4)c4ccc(F)cc4)CC3)cc2)n1` [Compound 78] are 67% and 100%.
As to `CCn1nnc(-c2ccc(CN3CCC(=C(c4ccc(F)cc4)c4ccc(Cl)cc4)CC3)cc2)n1` [Compound 79], the “Percent Mortality” value worked out at 83% and the “Percent Growth Inhibition” value came out at 100%.
For `CCn1nnc(-c2ccc(CN3CCC(=C(c4ccccc4)c4ccc(C(F)(F)F)cc4)CC3)cc2)n1` [Compound 80], the “Percent Mortality” value is given as 33% and the “Percent Growth Inhibition” value is 100%.
The corresponding values for `CCn1nnc(-c2ccc(CN3CCC(=C(c4ccc(F)cc4)c4ccc(C(F)(F)F)cc4)CC3)cc2)n1` [Compound 81] are 100% and 100%.
Consider `CCn1nnc(-c2ccc(CN3CCC(=C(c4ccc(C(F)(F)F)cc4)c4ccc(C(F)(F)F)cc4)CC3)cc2)n1` [Compound 82], for which the “Percent Mortality” value amounted to 100% and the “Percent Growth Inhibition” value was 100%.
As to `CCn1nnc(-c2ccc(CN3CCC(=C(c4ccc5c(c4)OC(F)(F)O5)c4ccc5c(c4)OC(F)(F)O5)CC3)cc2)n1` [Compound 83], the “Percent Mortality” value was determined as 100% and the “Percent Growth Inhibition” value was 100%.
As to `O=C(CCN1CCC(=C(c2ccccc2)c2ccccc2)CC1)c1ccccc1` [Compound 85], the “Percent Mortality” value is given as 100% and the “Percent Growth Inhibition” value is recorded as 100%.
As to `[O-][N+]1(Cc2ccc(OCC3CC3)cc2)CCC(=C(c2ccc(C(F)(F)F)cc2)c2ccc(C(F)(F)F)cc2)CC1` (stereo not drawn) [Compound 98], the “Percent Mortality” value turned out to be 100% and the “Percent Growth Inhibition” value is reported as 100%.
Consider `CCOC(=O)c1ccc(C[N+]2([O-])CCC(=C(c3ccc(C(F)(F)F)cc3)c3ccc(C(F)(F)F)cc3)CC2)cc1` (stereo not drawn) [Compound 99], for which the “Percent Mortality” value is recorded as 100% and the “Percent Growth Inhibition” value was determined as 100%.
Consider `CC(C)OC(=O)c1ccc(C[N+]2([O-])CCC(=C(c3ccc(C(F)(F)F)cc3)c3ccc(C(F)(F)F)cc3)CC2)cc1` (stereo not drawn) [Compound 100], for which the “Percent Mortality” value turned out to be 100% and the “Percent Growth Inhibition” value was 100%.
